Measured values from patent US20200031866A1, “PEPTIDE INHIBITORS OF SODIUM CHANNELS” (SPYRYX BIOSCIENCES, INC., priority 2016, published 2020).
Square brackets hold non-standard residues; d marks the D form. Ends that are not written are not given here. Nle = CCCC[C@H](N)C(=O)O

T1: alpha-ENaC (Homo sapiens, UniProt P37088)
T1 construct: expressed in transfected cells; host or cells: HEK293T
T1 sequence (P37088 1-669): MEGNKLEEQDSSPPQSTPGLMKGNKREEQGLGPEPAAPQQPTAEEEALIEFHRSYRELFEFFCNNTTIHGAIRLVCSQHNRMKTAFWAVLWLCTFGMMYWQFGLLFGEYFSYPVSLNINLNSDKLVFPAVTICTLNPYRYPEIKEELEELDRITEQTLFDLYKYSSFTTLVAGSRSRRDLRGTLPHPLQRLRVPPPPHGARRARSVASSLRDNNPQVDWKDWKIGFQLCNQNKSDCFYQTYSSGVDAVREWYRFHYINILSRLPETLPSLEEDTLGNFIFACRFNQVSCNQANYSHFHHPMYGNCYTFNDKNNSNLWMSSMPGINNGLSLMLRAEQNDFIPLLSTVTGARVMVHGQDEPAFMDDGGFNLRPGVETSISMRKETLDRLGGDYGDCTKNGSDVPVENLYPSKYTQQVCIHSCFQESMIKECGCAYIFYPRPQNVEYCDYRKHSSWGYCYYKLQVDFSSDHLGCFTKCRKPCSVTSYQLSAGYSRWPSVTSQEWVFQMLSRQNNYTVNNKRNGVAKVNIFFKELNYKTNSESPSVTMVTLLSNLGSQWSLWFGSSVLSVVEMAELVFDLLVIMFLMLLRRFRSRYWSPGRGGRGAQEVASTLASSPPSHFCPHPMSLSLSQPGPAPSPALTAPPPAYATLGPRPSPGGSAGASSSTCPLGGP

T2: alpha-ENaC (Homo sapiens, UniProt P37088+P51168+P51170)
T2 construct: expressed in transfected cells; host or cells: HEK293T
T2 sequence (P37088 1-669): T1 sequence (P37088 1-669)
T2 sequence (P51168 1-640): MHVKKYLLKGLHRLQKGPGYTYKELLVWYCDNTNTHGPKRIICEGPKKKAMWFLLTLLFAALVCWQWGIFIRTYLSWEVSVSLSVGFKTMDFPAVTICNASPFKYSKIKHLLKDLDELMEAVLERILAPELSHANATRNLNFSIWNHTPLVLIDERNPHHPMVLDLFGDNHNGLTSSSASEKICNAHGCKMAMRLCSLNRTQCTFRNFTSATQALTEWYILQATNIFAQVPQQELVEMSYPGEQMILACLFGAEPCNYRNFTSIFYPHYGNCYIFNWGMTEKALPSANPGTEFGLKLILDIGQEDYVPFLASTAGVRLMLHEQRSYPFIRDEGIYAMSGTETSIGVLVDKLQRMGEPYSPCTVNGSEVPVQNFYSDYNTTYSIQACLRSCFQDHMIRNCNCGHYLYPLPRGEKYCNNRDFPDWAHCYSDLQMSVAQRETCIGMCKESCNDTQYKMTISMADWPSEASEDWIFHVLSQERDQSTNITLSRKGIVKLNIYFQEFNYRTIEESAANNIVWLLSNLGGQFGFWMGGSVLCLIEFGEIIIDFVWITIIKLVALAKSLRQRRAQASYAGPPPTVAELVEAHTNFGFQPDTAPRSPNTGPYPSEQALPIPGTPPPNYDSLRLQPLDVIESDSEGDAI
T2 sequence (P51170 1-649): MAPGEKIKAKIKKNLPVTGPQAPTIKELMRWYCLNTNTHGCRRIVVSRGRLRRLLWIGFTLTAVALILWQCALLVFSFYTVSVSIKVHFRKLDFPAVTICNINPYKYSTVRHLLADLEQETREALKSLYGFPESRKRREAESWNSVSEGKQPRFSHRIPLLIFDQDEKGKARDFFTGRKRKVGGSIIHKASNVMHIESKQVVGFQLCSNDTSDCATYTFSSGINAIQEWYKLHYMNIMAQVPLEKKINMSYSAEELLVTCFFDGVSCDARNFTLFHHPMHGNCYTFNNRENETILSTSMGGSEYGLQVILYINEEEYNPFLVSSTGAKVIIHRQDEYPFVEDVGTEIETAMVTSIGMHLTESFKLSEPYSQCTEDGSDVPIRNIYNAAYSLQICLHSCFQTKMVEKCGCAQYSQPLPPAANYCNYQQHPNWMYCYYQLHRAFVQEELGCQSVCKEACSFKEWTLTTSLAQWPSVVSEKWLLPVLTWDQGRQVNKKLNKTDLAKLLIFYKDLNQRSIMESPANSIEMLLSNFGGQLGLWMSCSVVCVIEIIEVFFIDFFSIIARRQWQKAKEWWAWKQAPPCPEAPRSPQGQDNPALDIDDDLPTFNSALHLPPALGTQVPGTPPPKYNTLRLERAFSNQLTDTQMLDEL

T3: ENaC (Homo sapiens, UniProt P37088+P51168+P51170)
T3 construct: Peptides were added mucosally to HBECs at 30 μM and ASL height measured 3 h later by XZ-confocal microscopy; endogenous in cells; host or cells: primary human bronchial epithelial cultures (HBECs) at air-liquid interface
T3 sequence (P37088 1-669): T1 sequence (P37088 1-669)
T3 sequence (P51168 1-640): T2 sequence (P51168 1-640)
T3 sequence (P51170 1-649): T2 sequence (P51170 1-649)

B1: aaLPNlePLDQTaa (SEQ ID NO:5) (peptide)
peptide: [dA][dA]LP[Nle]PLDQT[dA][dA]-NH2
modifications: N-terminus assumed
SMILES: CCCC[C@H](NC(=O)[C@@H]1CCCN1C(=O)[C@H](CC(C)C)NC(=O)[C@@H](C)NC(=O)[C@@H](C)N)C(=O)N1CCC[C@H]1C(=O)N[C@@H](CC(C)C)C(=O)N[C@@H](CC(=O)O)C(=O)N[C@@H](CCC(N)=O)C(=O)N[C@H](C(=O)N[C@H](C)C(=O)N[C@H](C)C(N)=O)[C@@H](C)O

Key:
Heat stability = format: physicochemical
alpha-ENaC [1] = target: T1, alpha-ENaC; assay: Internalization of alpha-ENaC in HEK293T cells, GFP-tagged alpha-ENaC co-expressed only with gamma ENaC and no beta-ENaC; format: cell-based; settings: FIG. 6
Description: […] Am J Physiol Lung Cell Mol Physiol. 2013 December; 305(12):L990-L1001. doi: 10.1152/ajplung.00103.2013. Epub 2013 October; Garland et al. Proc Natl Acad Sci USA. 2013 Oct. 1; 110(40):15973-8. doi: 10.1073/pnas.1311999110. Epub 2013 Sep. 16.; Tan et al. J Physiol. 2014 Dec. 1; 592(Pt 23):5251-68). Twenty-four hours later, peptide or vehicle control were added at t=0 and fluorescence was read using a Tecan M1000 plate reader 3 h later. Fluorescence was read at 488 nm (excitation)/510 nm (emission).

alpha-ENaC [2] = target: T2, alpha-ENaC; assay: Internalization of alpha-ENaC in HEK293T cells, GFP-tagged alpha-ENaC co-expressed with beta and gamma ENaC; format: cell-based; settings: beta-ENaC co-expressed, FIGS. 5A-5U
Source text: HEK293T cells were transfected with gfp-αENaC where gfp was fused at the N-terminus of ENaC and unlabeled βENaC and γENaC using lipofectamine in 384 well plates as per the manufacturer's instructions and as published previously (see, e.g., Hobbs et al. Am J Physiol Lung Cell Mol Physiol. 2013 December; 305(12):L990-L1001. doi: 10.1152/ajplung.00103.2013. Epub 2013 October; Garland et al. Proc Natl Acad Sci USA. 2013 Oct. 1; 110(40):15973-8. doi: 10.1073/pnas.1311999110. Epub 2013 Sep. 16.; Tan et al. J Physiol. 2014 Dec. 1; 592(Pt 23):5251-68). Twenty-four hours later, peptide or vehicle control were added at t=0 and fluorescence was read using a Tecan M1000 plate reader 3 h later. Fluorescence was read at 488 nm (excitation)/510 nm (emission).

ENaC = target: T3, ENaC; settings: previously demonstrated (Hobbs et al., 2013); cited from earlier work
proteases = format: in vitro ADME
[3] = target: epithelial Na+ channel (ENaC), endogenous in human bronchial epithelial cultures (human, UniProt P37088 1-669; P51168 1-640; P51170 1-649); assay: cell-based or functional assay

Row | Molecule | heat stability (Heat stability) | effect on alpha-ENaC (alpha-ENaC [1]) | reduction of alpha-ENaC / functional receptor on the cell surface (alpha-ENaC [2]) | EC50 for inhibition of ENaC (ENaC) | duration of ENaC inhibition following a single dose (ENaC) | susceptibility to proteolytic degradation (proteases) | IC50, dose response of ASL height on airway cells [3]
1 | H-GGLPVPLDQTLPLNVNPA-NH2 [SEQ ID NO:1] | heat-stable | no effect | effective in reducing alpha-ENaC | sub micromolar | up to 24 h | resistant to proteolysis | 
2 | B1 |  |  |  |  |  |  | 30 nM
